Several values for one entry are separate records, joined by “and”; a condition that tells them apart may be missing. Equal entries are not always repeated. Where two headings read alike, the source gives them in different places.

The results in this text go back to patent US12441718B2, “Selective angiotensin II compounds” (VICORE PHARMA AB, priority 2021, dated 2025).

For data set [1], the target named is T1, CYP2C8 (Homo sapiens, UniProt P10632).
T1 construct: isoform-specific substrates incubated with human liver microsomes; tissue Eurofins ITEMG232 (protocol number); host or cells: human liver microsomes
T1 sequence (P10632 1-490): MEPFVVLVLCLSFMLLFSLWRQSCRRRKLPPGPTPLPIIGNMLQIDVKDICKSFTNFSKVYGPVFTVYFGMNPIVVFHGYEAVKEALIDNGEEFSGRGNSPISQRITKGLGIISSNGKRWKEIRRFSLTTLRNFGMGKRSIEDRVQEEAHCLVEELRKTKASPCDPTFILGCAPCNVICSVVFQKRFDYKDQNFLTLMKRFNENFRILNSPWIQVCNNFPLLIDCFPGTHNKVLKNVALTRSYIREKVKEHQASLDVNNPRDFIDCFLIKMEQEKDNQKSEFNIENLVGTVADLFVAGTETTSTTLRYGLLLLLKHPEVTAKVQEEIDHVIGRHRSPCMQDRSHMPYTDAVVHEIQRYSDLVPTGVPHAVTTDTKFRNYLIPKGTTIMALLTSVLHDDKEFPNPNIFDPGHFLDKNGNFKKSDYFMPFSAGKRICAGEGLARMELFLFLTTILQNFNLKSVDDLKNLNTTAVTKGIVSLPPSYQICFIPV
Briefly: CYP inhibition in human liver microsomes (Eurofins ITEMG232). It counts as in vitro ADME. The conditions noted are these: substrate paclitaxel and amodiaquine; for inhibition at 10 µM: human, probe paclitaxel and amodiaquine, read-out: CYP2C8 Inh %.

Data set [2] has as its target T2, CYP2D6 (Homo sapiens, UniProt P10635).
T2 construct: isoform-specific substrates incubated with human liver microsomes; tissue Eurofins ITEMG232 (protocol number); host or cells: human liver microsomes
The data set is described as above. It counts as in vitro ADME. The conditions noted are these: probe dextromethorphan, substrate dextromethorphan, read-out: CYP2D6 Inh %.

Data set [3] addresses CYP3A4 (Homo sapiens, UniProt P08684). Put plainly: CYP inhibition in human liver microsomes (Eurofins ITEMG232), midazolam substrate. It counts as in vitro ADME. The arrangement: isoform-specific substrates incubated with human liver microsomes; tissue Eurofins ITEMG232 (protocol number); host or cells: human liver microsomes. The conditions noted are these: for inhibition at 10 µM: human, probe midazolam, read-out: CYP3A4 midazolam Inh %.

For data set [4], the target named is CYP2C9 (Homo sapiens, UniProt P11712). Put plainly: CYP inhibition in human liver microsomes (Eurofins ITEMG232). Type of data set: in vitro ADME. The arrangement: isoform-specific substrates incubated with human liver microsomes; tissue Eurofins ITEMG232 (protocol number); host or cells: human liver microsomes. The following applies: substrate diclofenac; for inhibition at 10 µM: human, probe diclofenac, read-out: CYP2C9 Inh %.

Data set [5] can be described thus: Metabolic stability in pooled human liver microsomes. It counts as in vitro ADME. The conditions noted are these: human, pooled human liver microsomes, pooled human liver microsomes 0.5 mg/mL, 1 μM test compound, 37° C., * rows = mean of two runs. The procedure:
Pooled human liver microsomes in PBS at a concentration of 0.5 mg/mL was incubated with or without 1 mM NADPH for 70 min at 37° C. Test compound was added after 10 minutes to a final concentration of 1 μM. Samples were withdrawn at 0, 5, 15 and 60 minutes and added to test tubes containing acetonitrile, to stop the reaction, and with terfenadine, used as internal standard. After centrifugation at 10 000×g for 5 minutes the supernatant was diluted 1:1 with 1% formic acid. Samples were separated on a reverse phase column and detected by triple quadrupole MSMS (Agilant model 6540). The concentration of the parent compound at the different time points was measured with an external standard curve using terfenadine as internal standard and the initial metabolic rate in the presence or absence of NADPH calculated.

Data set [6] concerns the target T3, CYP1A2 (Homo sapiens, UniProt P05177).
T3 construct: isoform-specific substrates incubated with human liver microsomes; tissue Eurofins ITEMG232 (protocol number); host or cells: human liver microsomes
Put plainly: in vitro. Type of data set: in vitro ADME. The conditions noted are these: human liver microsomes, substrate phenacetin; for inhibition at 10 µM: human, microsomes, read-out: CYP1A2 Inh %.
Experimental: The following substrates were used; CYP1A phenacetin, CYP2B36 bupropion, CYP2C8 paclitaxel and amodiaquine, CYP2C9 diclofenac, CYP2C19 omeprazole, CYP2D6 dextromethorphan, CYP3A midazolam and testosterone.
At the end of the incubation, the formation of metabolite was monitored by HPLC-MS/MS as the peak area response.

The target of data set [7] is T4, CYP2C19 (Homo sapiens, UniProt P33261).
T4 construct: isoform-specific substrates incubated with human liver microsomes; tissue Eurofins ITEMG232 (protocol number); host or cells: human liver microsomes
Briefly: CYP inhibition in human liver microsomes (Eurofins ITEMG232). Type of data set: in vitro ADME. The conditions noted are these: substrate omeprazole; for inhibition at 10 µM: human, probe omeprazole, read-out: CYP2C19 Inh %.

In data set [8] the target is T5, CYP2B6 (Homo sapiens, UniProt P20813).
T5 construct: isoform-specific substrates incubated with human liver microsomes; tissue Eurofins ITEMG232 (protocol number); host or cells: human liver microsomes
T5 sequence (P20813 1-491): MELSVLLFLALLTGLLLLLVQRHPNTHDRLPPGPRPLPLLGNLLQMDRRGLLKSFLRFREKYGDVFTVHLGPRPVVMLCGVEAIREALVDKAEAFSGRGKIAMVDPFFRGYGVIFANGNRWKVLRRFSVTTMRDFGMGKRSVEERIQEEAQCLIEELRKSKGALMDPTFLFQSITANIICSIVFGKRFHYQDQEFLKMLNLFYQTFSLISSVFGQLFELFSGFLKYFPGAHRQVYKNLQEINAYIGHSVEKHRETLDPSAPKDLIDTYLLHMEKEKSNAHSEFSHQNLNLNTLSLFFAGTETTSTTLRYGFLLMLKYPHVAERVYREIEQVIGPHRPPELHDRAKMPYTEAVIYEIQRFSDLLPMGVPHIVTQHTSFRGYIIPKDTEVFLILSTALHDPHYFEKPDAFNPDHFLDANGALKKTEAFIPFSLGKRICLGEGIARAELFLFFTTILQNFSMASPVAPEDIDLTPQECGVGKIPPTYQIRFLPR
The description is as above. The following applies: probe bupropion, substrate bupropion, read-out: CYP2B6 Inh %. Type of data set: in vitro ADME.

Data set [9] has as its system CYP3A4&5. Put plainly: in vitro. The following applies: human, human liver microsomes, probe testosterone.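 Also: Read-out is the metabolite generated from the probe substrate, quantified as HPLC-MS/MS peak area once incubation ends.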
Setting [10] is: with 1 mM NADPH, read-out: T1/2, + NaDPH.
The mark [11] stands for this setting: without NADPH, read-out: T1/2, no NaDPH.

T4 sequence (P33261 whole entry, canonical isoform): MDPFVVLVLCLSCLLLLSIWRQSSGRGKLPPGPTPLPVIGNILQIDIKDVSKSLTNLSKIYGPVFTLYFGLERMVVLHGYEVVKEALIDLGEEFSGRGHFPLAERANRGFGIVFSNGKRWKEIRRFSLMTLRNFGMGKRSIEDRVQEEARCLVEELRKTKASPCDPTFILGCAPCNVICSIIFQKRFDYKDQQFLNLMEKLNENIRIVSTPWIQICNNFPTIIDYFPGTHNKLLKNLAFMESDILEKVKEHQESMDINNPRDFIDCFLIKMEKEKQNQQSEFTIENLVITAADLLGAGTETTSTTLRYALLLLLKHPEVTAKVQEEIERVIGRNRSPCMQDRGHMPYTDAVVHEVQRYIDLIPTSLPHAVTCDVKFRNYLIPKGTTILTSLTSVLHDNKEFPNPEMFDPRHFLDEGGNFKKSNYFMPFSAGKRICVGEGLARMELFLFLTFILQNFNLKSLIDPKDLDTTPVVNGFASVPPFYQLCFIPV
T2 sequence (P10635 whole entry, canonical isoform): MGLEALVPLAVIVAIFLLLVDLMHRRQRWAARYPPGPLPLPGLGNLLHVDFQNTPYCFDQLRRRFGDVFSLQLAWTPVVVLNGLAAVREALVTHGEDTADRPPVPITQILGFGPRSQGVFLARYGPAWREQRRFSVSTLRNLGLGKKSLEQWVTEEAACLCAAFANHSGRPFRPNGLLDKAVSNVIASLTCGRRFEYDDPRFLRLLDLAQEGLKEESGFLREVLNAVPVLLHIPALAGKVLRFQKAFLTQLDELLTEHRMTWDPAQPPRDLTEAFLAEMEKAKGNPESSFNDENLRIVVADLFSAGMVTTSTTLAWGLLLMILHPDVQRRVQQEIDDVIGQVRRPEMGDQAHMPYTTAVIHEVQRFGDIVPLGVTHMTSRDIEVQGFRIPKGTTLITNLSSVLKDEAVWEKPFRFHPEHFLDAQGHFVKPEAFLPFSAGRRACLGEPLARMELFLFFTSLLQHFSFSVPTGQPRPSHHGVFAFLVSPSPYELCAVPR
CYP3A4, sequence (P08684 whole entry, canonical isoform): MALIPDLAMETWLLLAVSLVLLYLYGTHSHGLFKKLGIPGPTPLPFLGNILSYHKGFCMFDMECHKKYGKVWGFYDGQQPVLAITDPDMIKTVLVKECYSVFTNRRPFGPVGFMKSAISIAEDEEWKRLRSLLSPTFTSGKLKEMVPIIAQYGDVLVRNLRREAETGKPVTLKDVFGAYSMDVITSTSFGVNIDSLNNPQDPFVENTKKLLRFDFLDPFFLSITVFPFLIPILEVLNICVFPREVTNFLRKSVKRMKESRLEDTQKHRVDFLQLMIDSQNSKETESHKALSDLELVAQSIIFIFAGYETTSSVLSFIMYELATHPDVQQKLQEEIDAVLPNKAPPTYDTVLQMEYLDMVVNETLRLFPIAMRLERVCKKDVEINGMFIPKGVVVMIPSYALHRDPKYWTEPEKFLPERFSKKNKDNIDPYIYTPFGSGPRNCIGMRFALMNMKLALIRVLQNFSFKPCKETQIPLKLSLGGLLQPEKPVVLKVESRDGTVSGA
CYP2C9, sequence (P11712 whole entry, canonical isoform): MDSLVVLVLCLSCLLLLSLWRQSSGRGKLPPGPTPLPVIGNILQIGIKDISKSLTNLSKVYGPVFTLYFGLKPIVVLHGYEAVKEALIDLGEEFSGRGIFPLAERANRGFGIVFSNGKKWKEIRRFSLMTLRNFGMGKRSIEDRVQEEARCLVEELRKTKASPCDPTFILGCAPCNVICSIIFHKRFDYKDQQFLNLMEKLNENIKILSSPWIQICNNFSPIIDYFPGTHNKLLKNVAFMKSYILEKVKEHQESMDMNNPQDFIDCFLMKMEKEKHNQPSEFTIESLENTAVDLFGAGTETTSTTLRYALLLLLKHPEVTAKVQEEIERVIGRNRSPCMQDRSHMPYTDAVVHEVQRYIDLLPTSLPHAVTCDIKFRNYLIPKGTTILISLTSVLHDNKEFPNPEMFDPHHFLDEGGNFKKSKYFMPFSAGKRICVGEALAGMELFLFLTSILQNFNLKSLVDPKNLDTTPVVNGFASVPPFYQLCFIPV
T3 sequence (P05177 whole entry, canonical isoform): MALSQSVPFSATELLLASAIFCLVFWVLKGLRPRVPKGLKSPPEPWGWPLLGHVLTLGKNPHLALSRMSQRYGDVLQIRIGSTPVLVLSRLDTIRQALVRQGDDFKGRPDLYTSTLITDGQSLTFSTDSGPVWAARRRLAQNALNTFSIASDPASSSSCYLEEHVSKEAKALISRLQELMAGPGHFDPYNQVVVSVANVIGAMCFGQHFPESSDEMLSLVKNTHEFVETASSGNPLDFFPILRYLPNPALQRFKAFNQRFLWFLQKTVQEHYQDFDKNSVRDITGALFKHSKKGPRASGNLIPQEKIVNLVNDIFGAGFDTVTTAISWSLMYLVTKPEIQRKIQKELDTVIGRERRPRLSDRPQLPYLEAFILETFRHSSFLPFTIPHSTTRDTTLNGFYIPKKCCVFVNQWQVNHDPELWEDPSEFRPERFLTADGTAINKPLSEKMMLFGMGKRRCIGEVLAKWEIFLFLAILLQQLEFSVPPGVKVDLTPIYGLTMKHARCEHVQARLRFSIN

`CC(C)Cc1ccc(S(=O)(=O)Nc2nccs2)c(-c2ccc(Cn3ccnc3C(C)(C)C)cc2)c1` [Example 5, 4′-((2-(tert-Butyl)-1H-imidazol-1-yl)methyl)-5-isobutyl-N-(thiazol-2-yl)-[1,1′-biphenyl]-2-sulfonamide]: the inhibition at 10 µM in data set [1] is 92.1%; in data set [2], 44.5%; in data set [3], -11.4%; in [4] it was 72.9%; in data set [6], 19.2%; in data set [7] it was 70.1%. In addition, the inhibition at 10 µM came to 56.5% in data set [8] and 56% in data set [9]. For the same compound, the half-life at 1 μM is 0.717 h in [5] (setting [10]) and over 1 h in data set [5] (setting [11]).
Turning to `CC(C)Cc1ccc(S(=O)(=O)Nc2ncc(C#N)cn2)c(-c2ccc(Cn3ccnc3C(C)(C)C)cc2)c1` [Example 6, 4′-((2-(tert-Butyl)-1H-imidazol-1-yl)methyl)-N-(5-cyanopyrimidin-2-yl)-5-isobutyl-[1,1′-biphenyl]-2-sulfonamide], the “CYP2C8 Inh %” value in [1] (10 μM) was 49.2% and 95.6%. Moreover, in data set [3] (10 μM), the “CYP3A4 midazolam Inh %” value is 28.2% and 48.5%. In data set [4] (10 μM), the “CYP2C9 Inh %” value is 37.1% and 71.9%. Besides, the “CYP1A2 Inh %” value in [6] (10 μM) is 36.2% and 65.6%. The “CYP2C19 Inh %” value in [7] (10 μM) is 38.6% and 66.6%.
In the case of `COc1ncncc1NS(=O)(=O)c1ccc(CC(C)C)cc1-c1ccc(Cn2ccnc2C(C)(C)C)cc1` [Example 18, 4′-((2-(tert-Butyl)-1H-imidazol-1-yl)methyl)-5-isobutyl-N-(4-methoxypyrimidin-5-yl)-[1,1′-biphenyl]-2-sulfonamide], the inhibition at 10 µM in data set [1] was found to be 59.7%; in data set [2] it was 16.4%; in data set [3], 98.4%; in [4] it was 90.8%; in [6], 9.7%; in data set [7], 87.8%. The inhibition at 10 µM in data set [8] came to 40.4%; in [9] it was 97.9%. The results for the half-life at 1 μM in data set [5] (setting [10]) and in [5] (setting [11]) were 0.117 h and over 1 h, respectively.
Regarding `Cc1nccn1Cc1ccc(-c2cc(CC(C)C)sc2S(=O)(=O)Nc2ncccn2)cc1F` [Example 44, 3-(3-Fluoro-4-((2-methyl-1H-imidazol-1-yl)methyl)phenyl)-5-isobutyl-N-(pyrimidin-2-yl)thiophene-2-sulfonamide], the inhibition at 10 µM amounted to 43% in data set [1]; 9% in data set [2]; 35% in [3]; 30% in data set [4]; 33% in [6]; 64% in [7]. In addition, the inhibition at 10 µM was determined as 14% in data set [8] and 67% in data set [9]. Besides, the half-life at 1 μM in [5] (setting [10]) and in [5] (setting [11]) was over 1 h in each case.
Take `COc1ncnc(OC)c1NS(=O)(=O)c1ccc(CC(C)C)cc1-c1ccc(Cn2ccnc2C(C)(C)C)cc1` [Example 19, 4′-((2-(tert-Butyl)-1H-imidazol-1-yl)methyl)-N-(4,6-dimethoxypyrimidin-5-yl)-5-isobutyl-[1,1′-biphenyl]-2-sulfonamide]: the inhibition at 10 µM is 54.3% in data set [1]; 45.2% in [2]; 73% in data set [3]; 87.6% in data set [4]; 21.7% in data set [6]; 74.8% in [7]. Besides, the inhibition at 10 µM in data set [8] is 27.5%; in [9] it was 63%. Also, the values for the half-life at 1 μM in data set [5] (setting [10]) and in [5] (setting [11]) were 0.15 h and over 1 h, respectively.
For the compound `CCc1nccn1Cc1ccc(-c2cc(CC(C)C)sc2S(=O)(=O)Nc2ncccn2)cc1F` [Example 45, 3-(4-((2-Ethyl-1H-imidazol-1-yl)methyl)-3-fluorophenyl)-5-isobutyl-N-(pyrimidin-2-yl)thiophene-2-sulfonamide], the inhibition at 10 µM is 64% in [1]; 13% in data set [2]; 15% in [3]; 20% in [4]; 54% in data set [6]; 65% in data set [7]. The inhibition at 10 µM came to 16% in data set [8] and 62% in data set [9]. The half-life at 1 μM in [5] (setting [10]) and in [5] (setting [11]) was over 1 h throughout.
As for `CC(C)Cc1ccc(S(=O)(=O)Nc2ncc(Cl)cn2)c(-c2ccc(Cn3ccnc3C(C)(C)C)cc2)c1` [Example 2, 4′-((2-(tert-Butyl)-1H-imidazol-1-yl)methyl)-N-(5-chloropyrimidin-2-yl)-5-isobutyl-[1,1′-biphenyl]-2-sulfonamide], the inhibition at 10 µM in data set [1] was 88.7%; in data set [2], 5.7%; in [3] it was 36%; in data set [4], 46%; in [6], 84%; in [7], 37%. Besides, the results for the inhibition at 10 µM in data set [8] and in data set [9] were 14% and 3.3%, respectively. Further, the half-life at 1 μM in [5] (setting [10]) and in [5] (setting [11]) was over 1 h each time.
